Assays:
harmful plants = assay: Pre-emergence herbicidal effect, greenhouse pot test; type: in vivo; settings: application rate of 1 kg or less of active substance per hectare, scored after about 3 weeks
Source text: Seeds of monocotyledonous or dicotyledonous weed plants or crop plants are planted in wood-fiber pots in sandy loam and covered with soil. The compounds (I) according to the invention, formulated in the form of wettable powders (WP), are then applied as aqueous suspension or emulsion at a water application rate of 600 I/ha (converted) with the addition of 0.2% of wetting agent to the surface of the covering soil.
Following the treatment, the pots are placed in a greenhouse and kept under good growth conditions for the test plants. After about 3 weeks, the effect of the preparations is scored visually in comparison with untreated controls (herbicidal effect in percent (%): 100% effect=plants have died, 0% effect=as control plants).

[1] = tested on: weed-grasses and broad-leaved weeds; assay: Post-emergence herbicidal effect, greenhouse pot test; type: in vivo; settings: application rate of 1 kg and less of active substance per hectare, scored after 3 weeks
Method: Seeds of monocotyledonous or dicotyledonous weed plants or crop plants are planted in wood-fiber pots in sandy loam, covered with soil and grown in a greenhouse under good growth conditions. 2 to 3 weeks after sowing, the test plants are treated in the one-leaf stage. The compounds according to the invention, formulated in the form of wettable powders (WP), are then sprayed onto the green plant parts as aqueous suspension or emulsion at a water application rate of 600 I/ha (converted) with the addition of 0.2% of wetting agent. After 3 weeks' standing time of the test plants in the greenhouse under optimum growth conditions, the effect of the preparations is scored visually in comparison with untreated controls (herbicidal effect in percent (%): 100% effect=plants have died, 0% effect=as control plants).

Cc1nn(-c2ccns2)c(-c2ccc(Br)s2)c1CC(=O)O [Compound 1-67]
herbicidal pre-emergence activity against a number of harmful plants (harmful plants): good herbicidal pre-emergence activity
post-emergence activity against a broad spectrum of weed-grasses and broad-leaved weeds [1]: good post-emergence activity

Cc1nn(-c2ccns2)c(-c2ccc(Br)cn2)c1CC(=O)O [Compound 1-119]
herbicidal pre-emergence activity against a number of harmful plants (harmful plants): good herbicidal pre-emergence activity
post-emergence activity against a broad spectrum of weed-grasses and broad-leaved weeds [1]: good post-emergence activity

COC(=O)Cc1c(C)nn(-c2ccns2)c1-c1ccccc1 [Compound 2-2]
herbicidal pre-emergence activity against a number of harmful plants (harmful plants): good herbicidal pre-emergence activity
post-emergence activity against a broad spectrum of weed-grasses and broad-leaved weeds [1]: good post-emergence activity

COC(=O)Cc1c(C)nn(-c2ccns2)c1-c1ccc(Cl)cc1 [Compound 2-28]
herbicidal pre-emergence activity against a number of harmful plants (harmful plants): good herbicidal pre-emergence activity
post-emergence activity against a broad spectrum of weed-grasses and broad-leaved weeds [1]: good post-emergence activity

COC(=O)Cc1c(C)nn(-c2ccns2)c1-c1ccc(Br)s1 [Compound 2-68]
herbicidal pre-emergence activity against a number of harmful plants (harmful plants): good herbicidal pre-emergence activity
post-emergence activity against a broad spectrum of weed-grasses and broad-leaved weeds [1]: good post-emergence activity

COC(=O)Cc1c(C)nn(-c2ccns2)c1-c1ccccn1 [Compound 2-116]
herbicidal pre-emergence activity against a number of harmful plants (harmful plants): good herbicidal pre-emergence activity
post-emergence activity against a broad spectrum of weed-grasses and broad-leaved weeds [1]: good post-emergence activity

COC(=O)Cc1c(C)nn(-c2ccns2)c1-c1ccc(Br)cn1 [Compound 2-120]
herbicidal pre-emergence activity against a number of harmful plants (harmful plants): good herbicidal pre-emergence activity
post-emergence activity against a broad spectrum of weed-grasses and broad-leaved weeds [1]: good post-emergence activity

COC(=O)Cc1c(C)nn(-c2cc(C)ns2)c1-c1ccc(Cl)cc1 [Compound 2-147, Methyl[5-(4-chlorophenyl)-3-methyl-1-(3-methylisothiazol-5-yl)-1H-pyrazol-4-yl]acetate]
herbicidal pre-emergence activity against a number of harmful plants (harmful plants): good herbicidal pre-emergence activity
post-emergence activity against a broad spectrum of weed-grasses and broad-leaved weeds [1]: good post-emergence activity

COC(=O)Cc1c(C)nn(-c2cnsc2)c1-c1ccccc1 [Compound 5-2]
herbicidal pre-emergence activity against a number of harmful plants (harmful plants): good herbicidal pre-emergence activity
post-emergence activity against a broad spectrum of weed-grasses and broad-leaved weeds [1]: good post-emergence activity

COC(=O)Cc1c(C)nn(-c2cnsc2)c1-c1ccc(Cl)cc1 [Compound 5-28]
herbicidal pre-emergence activity against a number of harmful plants (harmful plants): good herbicidal pre-emergence activity
post-emergence activity against a broad spectrum of weed-grasses and broad-leaved weeds [1]: good post-emergence activity

COC(=O)Cc1c(C)nn(-c2cnsc2)c1-c1ccccn1 [Compound 5-115]
herbicidal pre-emergence activity against a number of harmful plants (harmful plants): good herbicidal pre-emergence activity
post-emergence activity against a broad spectrum of weed-grasses and broad-leaved weeds [1]: good post-emergence activity

COC(=O)Cc1c(C)nn(-c2cnsc2)c1-c1ccc(Cl)cn1 [Compound 5-116]
herbicidal pre-emergence activity against a number of harmful plants (harmful plants): good herbicidal pre-emergence activity
post-emergence activity against a broad spectrum of weed-grasses and broad-leaved weeds [1]: good post-emergence activity

COC(=O)Cc1c(C)nn(-c2cnsc2)c1-c1ccc(Br)cn1 [Compound 5-119]
herbicidal pre-emergence activity against a number of harmful plants (harmful plants): good herbicidal pre-emergence activity
post-emergence activity against a broad spectrum of weed-grasses and broad-leaved weeds [1]: good post-emergence activity

COC(=O)Cc1c(C)nn(-c2cnsc2)c1-c1ccc(F)cc1 [Compound 5-131]
herbicidal pre-emergence activity against a number of harmful plants (harmful plants): good herbicidal pre-emergence activity
post-emergence activity against a broad spectrum of weed-grasses and broad-leaved weeds [1]: good post-emergence activity

COC(=O)Cc1c(C)nn(-c2cnsc2)c1-c1nc2ccccc2s1 [Compound 5-216]
herbicidal pre-emergence activity against a number of harmful plants (harmful plants): good herbicidal pre-emergence activity
post-emergence activity against a broad spectrum of weed-grasses and broad-leaved weeds [1]: good post-emergence activity

COC(=O)Cc1c(C)nn(-c2cnsc2)c1-c1ncc(Br)cn1 [Compound 5-227]
herbicidal pre-emergence activity against a number of harmful plants (harmful plants): good herbicidal pre-emergence activity
post-emergence activity against a broad spectrum of weed-grasses and broad-leaved weeds [1]: good post-emergence activity

COC(=O)Cc1c(C)nn(-c2cnsc2)c1-c1ccc2ccccc2n1 [Compound 5-239]
herbicidal pre-emergence activity against a number of harmful plants (harmful plants): good herbicidal pre-emergence activity
post-emergence activity against a broad spectrum of weed-grasses and broad-leaved weeds [1]: good post-emergence activity

COC(=O)Cc1c(C)nn(-c2cnsc2)c1-c1cc2ccccc2cn1 [Compound 5-240]
herbicidal pre-emergence activity against a number of harmful plants (harmful plants): good herbicidal pre-emergence activity
post-emergence activity against a broad spectrum of weed-grasses and broad-leaved weeds [1]: good post-emergence activity

Cc1nn(-c2cncs2)c(-c2ccc(Cl)cc2)c1CC(=O)O [Compound 7-29, [5-(4-Chlorophenyl)-3-methyl-1-(1,3-thiazol-5-yl)-1H-pyrazol-4-yl]acetic acid]
herbicidal pre-emergence activity against a number of harmful plants (harmful plants): good herbicidal pre-emergence activity
post-emergence activity against a broad spectrum of weed-grasses and broad-leaved weeds [1]: good post-emergence activity

COC(=O)Cc1c(C)nn(-c2cncs2)c1-c1ccccc1 [Compound 8-2]
herbicidal pre-emergence activity against a number of harmful plants (harmful plants): good herbicidal pre-emergence activity
post-emergence activity against a broad spectrum of weed-grasses and broad-leaved weeds [1]: good post-emergence activity

COC(=O)Cc1c(C)nn(-c2cncs2)c1-c1ccco1 [Compound 8-4]
herbicidal pre-emergence activity against a number of harmful plants (harmful plants): good herbicidal pre-emergence activity
post-emergence activity against a broad spectrum of weed-grasses and broad-leaved weeds [1]: good post-emergence activity

COC(=O)Cc1c(C)nn(-c2cncs2)c1-c1ccc(C)cc1 [Compound 8-16]
herbicidal pre-emergence activity against a number of harmful plants (harmful plants): good herbicidal pre-emergence activity
post-emergence activity against a broad spectrum of weed-grasses and broad-leaved weeds [1]: good post-emergence activity

COC(=O)Cc1c(C)nn(-c2cncs2)c1-c1ccc(Cl)cc1 [Compound 8-28, methyl[5-(4-chlorophenyl)-3-methyl-1-(1,3-thiazol-5-yl)-1H-pyrazol-4-yl]acetate]
herbicidal pre-emergence activity against a number of harmful plants (harmful plants): good herbicidal pre-emergence activity
post-emergence activity against a broad spectrum of weed-grasses and broad-leaved weeds [1]: good post-emergence activity

COC(=O)Cc1c(C)nn(-c2cncs2)c1-c1ccc(C(F)(F)F)cc1 [Compound 8-32]
herbicidal pre-emergence activity against a number of harmful plants (harmful plants): good herbicidal pre-emergence activity
post-emergence activity against a broad spectrum of weed-grasses and broad-leaved weeds [1]: good post-emergence activity

COC(=O)Cc1c(C)nn(-c2cncs2)c1-c1sccc1C [Compound 8-64]
herbicidal pre-emergence activity against a number of harmful plants (harmful plants): good herbicidal pre-emergence activity
post-emergence activity against a broad spectrum of weed-grasses and broad-leaved weeds [1]: good post-emergence activity

COC(=O)Cc1c(C)nn(-c2cncs2)c1-c1ccc(Br)s1 [Compound 8-69]
herbicidal pre-emergence activity against a number of harmful plants (harmful plants): good herbicidal pre-emergence activity
post-emergence activity against a broad spectrum of weed-grasses and broad-leaved weeds [1]: good post-emergence activity

COC(=O)Cc1c(C)nn(-c2cncs2)c1-c1ccccn1 [Compound 8-117]
herbicidal pre-emergence activity against a number of harmful plants (harmful plants): good herbicidal pre-emergence activity
post-emergence activity against a broad spectrum of weed-grasses and broad-leaved weeds [1]: good post-emergence activity

COC(=O)Cc1c(C)nn(-c2cncs2)c1-c1ccc(Cl)cn1 [Compound 8-118]
herbicidal pre-emergence activity against a number of harmful plants (harmful plants): good herbicidal pre-emergence activity
post-emergence activity against a broad spectrum of weed-grasses and broad-leaved weeds [1]: good post-emergence activity

COC(=O)Cc1c(C)nn(-c2cncs2)c1-c1ccc(Br)cn1 [Compound 8-121]
herbicidal pre-emergence activity against a number of harmful plants (harmful plants): good herbicidal pre-emergence activity
post-emergence activity against a broad spectrum of weed-grasses and broad-leaved weeds [1]: good post-emergence activity

COC(=O)Cc1c(C)nn(-c2cncs2)c1-c1ccc(F)cc1 [Compound 8-133]
herbicidal pre-emergence activity against a number of harmful plants (harmful plants): good herbicidal pre-emergence activity
post-emergence activity against a broad spectrum of weed-grasses and broad-leaved weeds [1]: good post-emergence activity

COC(=O)Cc1c(C)nn(-c2cncs2)c1-c1nc2ccccc2s1 [Compound 8-219]
herbicidal pre-emergence activity against a number of harmful plants (harmful plants): good herbicidal pre-emergence activity
post-emergence activity against a broad spectrum of weed-grasses and broad-leaved weeds [1]: good post-emergence activity

COC(=O)Cc1c(C)nn(-c2cncs2)c1-c1ncc(Cl)cn1 [Compound 8-229]
herbicidal pre-emergence activity against a number of harmful plants (harmful plants): good herbicidal pre-emergence activity
post-emergence activity against a broad spectrum of weed-grasses and broad-leaved weeds [1]: good post-emergence activity

COC(=O)Cc1c(C)nn(-c2cncs2)c1-c1ncc(Br)cn1 [Compound 8-230]
herbicidal pre-emergence activity against a number of harmful plants (harmful plants): good herbicidal pre-emergence activity
post-emergence activity against a broad spectrum of weed-grasses and broad-leaved weeds [1]: good post-emergence activity

COC(=O)Cc1c(C)nn(-c2cncs2)c1-c1ccc2ccccc2n1 [Compound 8-239]
herbicidal pre-emergence activity against a number of harmful plants (harmful plants): good herbicidal pre-emergence activity
post-emergence activity against a broad spectrum of weed-grasses and broad-leaved weeds [1]: good post-emergence activity

COC(=O)Cc1c(C)nn(-c2cncs2)c1-c1cc2ccccc2cn1 [Compound 8-240]
herbicidal pre-emergence activity against a number of harmful plants (harmful plants): good herbicidal pre-emergence activity
post-emergence activity against a broad spectrum of weed-grasses and broad-leaved weeds [1]: good post-emergence activity
